Values of other authors as cited in patent US10399716B2, “Personal care compositions and hangers” (The Procter & Gamble Company, priority 2014, dated 2019).

Compound | Log (water Solubility in mol/L) [log mol/L]
C=CCCCCCCCCC(=O)O [Undecylenic Acid] | −3.15
OCc1ccccc1 [benzyl Alcohol] | −0.47
CCCCCCC(O)CO (stereo not drawn) [caprylyl glycol] | −3.08
OCCc1ccccc1 [phenethyl alcohol] | −0.83
C/C=C/C=C/C(=O)O [sorbic acid] | −0.33

More lines, now with the values ahead:

Log (water Solubility in mol/L) [log mol/L] | Compound
−0.64 | OCCOc1ccccc1 [Phenoxyethanol]
−1.41 | O=C(O)c1ccccc1O [Salicylic acid]
−2.46 | Oc1cc(Cl)ccc1Oc1ccc(Cl)cc1Cl [Triclosan]
−1.91 | CCOC(=O)c1ccc(O)cc1 [ethyl paraben]
